Test results as given in the NIST ThermoML archive (doi:10.1016/j.jct.2017.04.009).

Assay: xn = mol fraction of the nth substance listed
Settings: Liquid, pressure decay method, x2 = 0

**Q.** Which binary diffusion coefficient (303.2 K, 94.5 kPa) does the source give for `CCCCCCn1cc[n+](C)c1.O=S(=O)([O-])C(F)(F)F` [1-hexyl-3-methylimidazolium trifluoromethanesulfonate] + CCF here?
**A.** 2.08e-10 m2/s

**Q.** What about the binary diffusion coefficient (313.2 K, 103.8 kPa) of the same compound?
**A.** 2.75e-10 m2/s

**Q.** What about the binary diffusion coefficient (323.2 K, 97 kPa) of the same compound?
**A.** 3.68e-10 m2/s

**Q.** And the binary diffusion coefficient (333.2 K, 94.4 kPa)?
**A.** 4.76e-10 m2/s

**Q.** And the binary diffusion coefficient (343.2 K, 98.1 kPa)?
**A.** 5.91e-10 m2/s
